Legend:
Assay in all cases: biochemical
Parameters in all cases: KinomeScan competition binding panel (DiscoveRx), percent of control at 1 uM
Details in all cases: read-out: Percent Control
STK16 = STK16 (Homo sapiens, UniProt O75716)
Outline: (§1)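 Selectivity profiled across 456 kinases/mutants by KinomeScan binding technology.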

MYLK2 = MYLK2 (Homo sapiens, UniProt Q9H1R3)
Outline: as §1

FLT3 = FLT3 (Homo sapiens, UniProt P36888)
Outline: as §1

ASK1 = target: T1, ASK1 (Homo sapiens, UniProt Q99683)
T1 construct: gene MAP3K5
Outline: as §1

ASK2 = target: T2, ASK2 (Homo sapiens, UniProt O95382)
T2 construct: gene MAP3K6
Outline: as §1

IRAK4 = IRAK4 (Homo sapiens, UniProt Q9NWZ3)
Chain of IRAK4 (Q9NWZ3 whole entry): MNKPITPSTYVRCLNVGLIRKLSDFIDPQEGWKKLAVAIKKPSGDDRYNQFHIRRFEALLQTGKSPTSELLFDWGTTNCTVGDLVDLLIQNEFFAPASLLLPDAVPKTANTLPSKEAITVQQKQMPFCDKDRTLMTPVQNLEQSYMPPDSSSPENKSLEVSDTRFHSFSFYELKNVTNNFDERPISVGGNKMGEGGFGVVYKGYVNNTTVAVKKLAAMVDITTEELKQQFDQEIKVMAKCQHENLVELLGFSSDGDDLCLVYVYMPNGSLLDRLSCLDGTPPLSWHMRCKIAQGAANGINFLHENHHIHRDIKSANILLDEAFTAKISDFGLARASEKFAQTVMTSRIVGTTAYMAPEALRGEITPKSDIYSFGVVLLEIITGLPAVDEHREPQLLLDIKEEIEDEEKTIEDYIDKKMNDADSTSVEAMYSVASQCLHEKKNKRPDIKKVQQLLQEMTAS
Outline: as §1

FRK = FRK (Homo sapiens, UniProt P42685)
Outline: as §1

BRAF(V600E) = BRAF(V600E) (Homo sapiens, UniProt P15056, V600E)
Outline: as §1

AKT3 = AKT3 (Homo sapiens, UniProt Q9Y243)
Outline: as §1

NEK2 = NEK2 (Homo sapiens, UniProt P51955)
Outline: as §1

PFTK1 = target: T3, PFTK1 (Homo sapiens, UniProt O94921)
T3 construct: gene CDK14
Outline: as §1

AXL = AXL (Homo sapiens, UniProt P30530)
Chain of AXL (P30530 whole entry): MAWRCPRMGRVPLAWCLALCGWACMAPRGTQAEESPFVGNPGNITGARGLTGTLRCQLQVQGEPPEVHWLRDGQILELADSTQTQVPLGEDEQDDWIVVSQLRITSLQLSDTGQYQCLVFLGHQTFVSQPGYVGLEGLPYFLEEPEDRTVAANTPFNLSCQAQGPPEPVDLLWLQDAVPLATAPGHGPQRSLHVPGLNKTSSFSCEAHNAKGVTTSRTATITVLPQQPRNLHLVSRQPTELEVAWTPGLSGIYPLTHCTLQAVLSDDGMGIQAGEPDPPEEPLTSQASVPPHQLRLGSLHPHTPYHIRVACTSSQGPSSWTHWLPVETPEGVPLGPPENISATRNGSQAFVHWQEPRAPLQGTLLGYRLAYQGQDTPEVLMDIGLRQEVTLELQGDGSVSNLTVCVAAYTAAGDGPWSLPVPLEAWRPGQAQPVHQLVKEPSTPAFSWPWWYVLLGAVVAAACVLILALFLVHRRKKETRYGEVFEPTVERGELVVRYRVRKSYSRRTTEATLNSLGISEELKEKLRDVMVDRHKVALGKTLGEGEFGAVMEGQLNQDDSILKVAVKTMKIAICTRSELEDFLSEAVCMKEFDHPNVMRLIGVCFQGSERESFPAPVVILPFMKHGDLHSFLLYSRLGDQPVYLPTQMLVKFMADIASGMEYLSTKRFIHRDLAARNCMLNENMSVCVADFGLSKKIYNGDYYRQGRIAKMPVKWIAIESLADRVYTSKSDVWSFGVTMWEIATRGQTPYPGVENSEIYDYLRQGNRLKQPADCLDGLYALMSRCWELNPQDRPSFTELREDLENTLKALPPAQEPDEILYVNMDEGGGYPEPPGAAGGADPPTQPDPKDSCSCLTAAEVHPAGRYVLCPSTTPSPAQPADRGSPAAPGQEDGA
Outline: as §1

MKNK1 = MKNK1 (Homo sapiens, UniProt Q9BUB5)
Outline: as §1

EPHA6 = EPHA6 (Homo sapiens, UniProt Q9UF33)
Chain of EPHA6 (Q9UF33 whole entry): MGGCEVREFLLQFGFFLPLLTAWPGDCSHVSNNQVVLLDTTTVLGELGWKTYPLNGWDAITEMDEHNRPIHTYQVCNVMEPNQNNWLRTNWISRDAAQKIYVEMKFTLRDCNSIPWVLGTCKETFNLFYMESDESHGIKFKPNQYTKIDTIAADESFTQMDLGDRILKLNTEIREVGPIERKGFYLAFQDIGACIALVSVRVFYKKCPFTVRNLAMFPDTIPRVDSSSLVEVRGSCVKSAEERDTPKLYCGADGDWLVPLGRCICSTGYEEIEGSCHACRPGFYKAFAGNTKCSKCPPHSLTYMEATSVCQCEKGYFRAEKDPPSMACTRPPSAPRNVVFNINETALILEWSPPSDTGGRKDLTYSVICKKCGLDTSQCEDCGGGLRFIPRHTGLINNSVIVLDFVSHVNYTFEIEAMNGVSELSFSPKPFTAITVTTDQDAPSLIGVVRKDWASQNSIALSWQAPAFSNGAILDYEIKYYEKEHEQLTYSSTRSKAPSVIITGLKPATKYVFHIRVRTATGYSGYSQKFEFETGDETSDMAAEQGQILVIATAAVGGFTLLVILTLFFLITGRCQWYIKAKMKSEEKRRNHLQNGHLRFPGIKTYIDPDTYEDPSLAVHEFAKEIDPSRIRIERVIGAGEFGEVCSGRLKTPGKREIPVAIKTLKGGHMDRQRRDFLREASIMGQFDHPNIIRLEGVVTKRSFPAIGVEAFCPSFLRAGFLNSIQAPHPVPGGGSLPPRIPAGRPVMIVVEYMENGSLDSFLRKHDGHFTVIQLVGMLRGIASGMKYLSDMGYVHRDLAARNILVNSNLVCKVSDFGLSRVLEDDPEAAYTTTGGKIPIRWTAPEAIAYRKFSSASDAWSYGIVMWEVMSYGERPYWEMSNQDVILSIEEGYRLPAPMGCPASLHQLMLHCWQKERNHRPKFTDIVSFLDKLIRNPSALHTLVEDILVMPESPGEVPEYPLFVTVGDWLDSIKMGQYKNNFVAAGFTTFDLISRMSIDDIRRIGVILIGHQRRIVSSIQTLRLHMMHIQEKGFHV
Outline: as §1

PIK3CA(E542K) = PIK3CA(E542K) (Homo sapiens, UniProt P42336, E542K)
Chain of PIK3CA(E542K) (P42336 whole entry E542K): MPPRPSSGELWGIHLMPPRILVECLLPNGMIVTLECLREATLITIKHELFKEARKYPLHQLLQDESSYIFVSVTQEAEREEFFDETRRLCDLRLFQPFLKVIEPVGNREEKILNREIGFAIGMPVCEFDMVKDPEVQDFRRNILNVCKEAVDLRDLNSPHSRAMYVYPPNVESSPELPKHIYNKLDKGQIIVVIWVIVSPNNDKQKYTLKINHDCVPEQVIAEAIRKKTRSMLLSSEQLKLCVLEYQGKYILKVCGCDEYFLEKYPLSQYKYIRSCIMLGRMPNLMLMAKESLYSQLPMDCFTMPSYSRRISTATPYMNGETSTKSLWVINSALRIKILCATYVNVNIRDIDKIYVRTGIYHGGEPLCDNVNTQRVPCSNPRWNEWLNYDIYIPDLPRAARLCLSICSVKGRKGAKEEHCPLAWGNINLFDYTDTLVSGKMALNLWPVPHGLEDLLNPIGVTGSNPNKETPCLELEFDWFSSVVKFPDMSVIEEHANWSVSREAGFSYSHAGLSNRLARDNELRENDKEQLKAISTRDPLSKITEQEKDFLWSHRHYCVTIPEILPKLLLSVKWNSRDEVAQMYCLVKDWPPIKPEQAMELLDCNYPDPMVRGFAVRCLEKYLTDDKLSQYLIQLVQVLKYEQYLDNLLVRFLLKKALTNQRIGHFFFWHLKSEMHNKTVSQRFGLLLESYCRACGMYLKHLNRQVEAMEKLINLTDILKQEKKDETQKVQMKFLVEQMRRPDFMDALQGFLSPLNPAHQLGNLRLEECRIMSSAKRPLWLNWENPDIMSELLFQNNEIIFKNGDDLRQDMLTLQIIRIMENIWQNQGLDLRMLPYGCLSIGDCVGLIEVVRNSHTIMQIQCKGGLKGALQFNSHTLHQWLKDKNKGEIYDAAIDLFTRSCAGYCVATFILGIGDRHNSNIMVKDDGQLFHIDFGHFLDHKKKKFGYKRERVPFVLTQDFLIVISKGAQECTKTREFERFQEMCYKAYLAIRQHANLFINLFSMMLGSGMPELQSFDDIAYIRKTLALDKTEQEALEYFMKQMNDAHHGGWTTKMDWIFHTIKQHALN
Outline: as §1

STK36 = STK36 (Homo sapiens, UniProt Q9NRP7)
Outline: as §1

EIF2AK1 = EIF2AK1 (Homo sapiens, UniProt Q9BQI3)
Chain of EIF2AK1 (Q9BQI3 whole entry): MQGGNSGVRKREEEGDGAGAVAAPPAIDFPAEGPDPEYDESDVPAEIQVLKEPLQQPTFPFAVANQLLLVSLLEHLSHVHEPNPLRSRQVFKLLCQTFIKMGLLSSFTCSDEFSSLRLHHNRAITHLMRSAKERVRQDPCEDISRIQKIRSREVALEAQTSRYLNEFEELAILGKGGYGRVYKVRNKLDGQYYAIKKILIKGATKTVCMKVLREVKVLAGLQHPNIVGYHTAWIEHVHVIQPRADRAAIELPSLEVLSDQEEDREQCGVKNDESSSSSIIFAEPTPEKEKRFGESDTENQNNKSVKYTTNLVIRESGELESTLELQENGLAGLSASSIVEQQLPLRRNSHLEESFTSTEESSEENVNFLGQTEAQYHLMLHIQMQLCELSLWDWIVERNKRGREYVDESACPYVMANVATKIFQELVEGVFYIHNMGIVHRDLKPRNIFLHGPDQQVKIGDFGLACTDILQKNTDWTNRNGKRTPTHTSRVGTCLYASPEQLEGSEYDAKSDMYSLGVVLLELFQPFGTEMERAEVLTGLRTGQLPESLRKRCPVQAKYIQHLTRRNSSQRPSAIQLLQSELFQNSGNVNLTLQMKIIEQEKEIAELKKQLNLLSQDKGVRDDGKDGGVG
Outline: as §1

BLK = BLK (Homo sapiens, UniProt P51451)
Outline: as §1

ABL2 = ABL2 (Homo sapiens, UniProt P42684)
Outline: as §1

RIOK3 = RIOK3 (Homo sapiens, UniProt O14730)
Outline: as §1

CLK1 = CLK1 (Homo sapiens, UniProt P49759)
Outline: as §1

MARK2 = MARK2 (Homo sapiens, UniProt Q7KZI7)
Chain of MARK2 (Q7KZI7 whole entry): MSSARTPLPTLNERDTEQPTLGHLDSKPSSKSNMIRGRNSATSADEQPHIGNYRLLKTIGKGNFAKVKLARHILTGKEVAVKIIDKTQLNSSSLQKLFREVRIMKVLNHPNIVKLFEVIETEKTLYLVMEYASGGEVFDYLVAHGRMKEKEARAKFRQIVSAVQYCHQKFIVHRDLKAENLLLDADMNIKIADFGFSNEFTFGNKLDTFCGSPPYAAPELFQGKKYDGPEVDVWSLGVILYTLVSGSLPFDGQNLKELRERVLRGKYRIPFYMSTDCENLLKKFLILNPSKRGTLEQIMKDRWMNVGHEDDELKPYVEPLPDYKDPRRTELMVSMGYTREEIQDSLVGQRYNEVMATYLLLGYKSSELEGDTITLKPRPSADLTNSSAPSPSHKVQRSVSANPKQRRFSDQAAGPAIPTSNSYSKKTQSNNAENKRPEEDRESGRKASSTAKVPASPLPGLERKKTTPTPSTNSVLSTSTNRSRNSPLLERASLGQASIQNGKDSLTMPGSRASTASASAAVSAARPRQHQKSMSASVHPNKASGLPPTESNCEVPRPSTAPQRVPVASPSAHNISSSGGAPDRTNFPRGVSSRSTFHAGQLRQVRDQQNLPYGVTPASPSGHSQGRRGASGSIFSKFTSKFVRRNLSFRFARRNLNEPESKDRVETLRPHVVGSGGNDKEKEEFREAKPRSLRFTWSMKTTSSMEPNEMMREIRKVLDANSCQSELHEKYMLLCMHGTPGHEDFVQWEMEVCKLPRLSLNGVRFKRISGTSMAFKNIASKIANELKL
Outline: as §1

JNK1 = target: T4, JNK1 (Homo sapiens, UniProt P45983)
T4 construct: gene MAPK8
Outline: as §1

ERN1 = ERN1 (Homo sapiens, UniProt O75460)
Outline: as §1

CSNK1A1L = CSNK1A1L (Homo sapiens, UniProt Q8N752)
Outline: as §1

**Q.** What does the source list for `C=CC(=O)Nc1cc(-n2c(=O)ccc3cnc4ccc(-n5cccn5)cc4c32)ccc1C` [CHMFL-BTK-11]?
**A.** remaining binding at 1 µM (STK16): 91%; remaining binding at 1 µM (MYLK2): 100%; remaining binding at 1 µM (FLT3): 100%; remaining binding at 1 µM (ASK1): 90%; remaining binding at 1 µM (ASK2): 100%; remaining binding at 1 µM (IRAK4): 82%; remaining binding at 1 µM (FRK): 100%; remaining binding at 1 µM (BRAF(V600E)): 100%; remaining binding at 1 µM (AKT3): 100%; remaining binding at 1 µM (NEK2): 100%; remaining binding at 1 µM (PFTK1): 100%; remaining binding at 1 µM (AXL): 100%; remaining binding at 1 µM (MKNK1): 92%; remaining binding at 1 µM (EPHA6): 100%; remaining binding at 1 µM (PIK3CA(E542K)): 91%; remaining binding at 1 µM (STK36): 97%; remaining binding at 1 µM (EIF2AK1): 92%; remaining binding at 1 µM (BLK): 30%; remaining binding at 1 µM (ABL2): 100%; remaining binding at 1 µM (RIOK3): 80%; remaining binding at 1 µM (CLK1): 92%; remaining binding at 1 µM (MARK2): 92%; remaining binding at 1 µM (JNK1): 72%; remaining binding at 1 µM (ERN1): 76%; remaining binding at 1 µM (CSNK1A1L): 100%
